Test results as given in US7511042B2, “Triazole compounds” (Boehringer Ingelheim Pharmaceuticals, Inc., priority 2003, dated 2009).

Row | Compound | melting point
1 | COc1cnc(C(C)(C)C)cc1NC(=O)c1ccc(C)c(-n2cc(C(=O)NCC(C)(C)C)nn2)c1 [Example 12, 1-[5-(2-tert-Butyl-5-methoxy-pyridin-4-ylcarbamoyl)-2-methyl-phenyl]-1H-1,2,3-triazole-4-carboxylic acid (2,2-dimethyl-propyl)-amide] | 181 to 182 °C (dec.)
2 | Cc1ccc(C(=O)Nc2cc(C(C)(C)C)ccc2[S+](C)[O-])cc1-n1cc(C(=O)NCC(C)(C)C)nn1 (centres unmarked) [Example 13, 1-[5-(5-tert-Butyl-2-methanesulfinyl-phenylcarbamoyl)-2-methyl-phenyl]-1H-1,2,3-triazole-4-carboxylic acid (2,2-dimethyl-propyl)-amide] | 74 to 78 °C (dec.)
